IC50 data for 19 compounds are collected here from patent US20140179664A1, “Heterocyclyl Pyrimidine Analogues As JAK Inhibitors” (Cellzome Limited, priority 2011, published 2014).

Type in all cases: binding
The target in experiment [1] is T1, JAK1 (Homo sapiens, UniProt P23458).
T1 construct: endogenous in cells; host or cells: Molt4 (ATCC CRL-1582) and Ramos (ATCC CRL-1596), mixed lysate 1:2
In words: Kinobeads assay, JAK1. The note with it: mixed Molt4/Ramos lysate, read-out: Inhibition values (IC50) JAK1. On the procedure:
After the incubation time the beads with captured proteins were separated from the lysate. Bound proteins were then eluted and the presence of JAK1, JAK2, JAK3 and TYK2 was detected and quantified using specific antibodies in a dot blot procedure and the Odyssey infrared detection system. Dose response curves for individual kinases were generated and IC50 values calculated.
(§1) 5×DP buffer: 250 mM Tris-HCl pH 7.4, 25% Glycerol, 7.5 mM MgCl2, 750 mM NaCl, 5 mM Na3VO4; filter the 5×DP buffer through a 0.22 μm filter and store in aliquots at −80° C. The 5×DP buffer is diluted with H2O to 1×DP buffer containing 1 mM DTT and 25 mM NaF.
Stock solutions of test compounds were prepared in DMSO. […] Starting with this solution a 1:3 dilution series (9 steps) was prepared. For control experiments (no test compound) a buffer containing 2% DMSO was used.
Cells were homogenized in a Potter S homogenizer in lysis buffer: 50 mM Tris-HCl, 0.8% NP40, 5% glycerol, 150 mM NaCl, 1.5 mM MgCl2, 25 mM NaF, 1 mM sodium vanadate, 1 mM DTT, pH 7.5. […] The material was dounced 10 times using a mechanized POTTER S, transferred to 50 mL falcon tubes, incubated for 30 minutes on ice and spun down for 10 minutes at 20,000 g at 4° C. (10,000 rpm in Sorvall SLA600, precooled). […] (33.500 rpm in Ti50.2, precooled). The supernatant was transferred again to a fresh 50 mL falcon tube, the protein concentration was determined by a Bradford assay (BioRad) and samples containing 50 mg of protein per aliquot were prepared. The samples were immediately used for experiments or frozen in liquid nitrogen and stored frozen at −80° C.
Cell lysate (approximately 50 mg protein per plate) was thawed in a water bath at room temperature and then stored on ice. […] The diluted cell lysate was stored on ice. Mixed Molt4/Ramos lysate was prepared by combining one volume of Molt4 lysate and two volumes of Ramos lysate (ratio 1:2).
Plates were sealed and incubated for 3 hours in a cold room on a plate shaker (Heidolph tiramax 1000) at 750 rpm. Afterwards the plate was washed 3 times with 230 μL washing buffer (1×DP 0.4% NP40). […] The eluate was frozen quickly at −80° C. and stored at −20° C.
Afterwards the membrane was washed twice for 10 minutes with PBS buffer containing 0.2% Tween 20 at room temperature. […] Afterwards the membrane was washed twice for 10 minutes each with 1×PBS buffer containing 0.2% Tween 20 at room temperature. Then the membrane was rinsed once with PBS buffer to remove residual Tween 20. The membrane was kept in PBS buffer at 4° C. and then scanned with the Odyssey instrument. Fluorescence signals were recorded and analysed according to the instructions of the manufacturer.

Experiment [2] deals with T2, JAK2 (Homo sapiens, UniProt O60674).
T2 construct: endogenous in cells; host or cells: Molt4 (ATCC CRL-1582) and Ramos (ATCC CRL-1596), mixed lysate 1:2
T2 sequence (O60674 whole entry): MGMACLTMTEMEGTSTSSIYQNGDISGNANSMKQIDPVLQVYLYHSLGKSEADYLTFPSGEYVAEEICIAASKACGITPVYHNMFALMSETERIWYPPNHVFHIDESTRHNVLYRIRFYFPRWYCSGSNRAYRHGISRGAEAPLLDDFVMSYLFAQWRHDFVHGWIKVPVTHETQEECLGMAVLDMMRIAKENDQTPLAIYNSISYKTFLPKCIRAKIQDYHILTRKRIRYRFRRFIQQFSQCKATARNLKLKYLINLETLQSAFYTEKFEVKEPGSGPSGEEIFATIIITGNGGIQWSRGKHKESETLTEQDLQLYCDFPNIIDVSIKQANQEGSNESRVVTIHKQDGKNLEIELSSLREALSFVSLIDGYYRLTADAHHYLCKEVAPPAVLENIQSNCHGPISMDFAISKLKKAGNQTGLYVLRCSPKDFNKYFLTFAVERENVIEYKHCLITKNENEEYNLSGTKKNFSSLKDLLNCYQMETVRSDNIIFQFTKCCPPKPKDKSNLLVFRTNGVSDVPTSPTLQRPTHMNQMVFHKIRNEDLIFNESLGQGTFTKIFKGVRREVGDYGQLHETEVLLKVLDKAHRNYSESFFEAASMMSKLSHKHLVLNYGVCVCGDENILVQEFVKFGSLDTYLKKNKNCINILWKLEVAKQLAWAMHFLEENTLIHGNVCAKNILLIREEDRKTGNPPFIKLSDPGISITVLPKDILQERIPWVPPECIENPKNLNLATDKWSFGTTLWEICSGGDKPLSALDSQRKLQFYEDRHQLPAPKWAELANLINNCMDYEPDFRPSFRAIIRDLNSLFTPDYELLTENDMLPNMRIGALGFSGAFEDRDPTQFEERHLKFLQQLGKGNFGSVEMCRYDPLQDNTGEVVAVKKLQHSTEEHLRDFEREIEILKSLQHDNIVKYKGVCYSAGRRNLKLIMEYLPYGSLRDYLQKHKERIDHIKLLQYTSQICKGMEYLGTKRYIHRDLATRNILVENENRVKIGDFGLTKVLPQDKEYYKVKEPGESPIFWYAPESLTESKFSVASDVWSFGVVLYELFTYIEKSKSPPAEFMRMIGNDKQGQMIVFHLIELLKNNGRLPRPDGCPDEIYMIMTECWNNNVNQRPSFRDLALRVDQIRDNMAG
In words: Kinobeads assay, JAK2. Conditions: mixed Molt4/Ramos lysate, read-out: Inhibition values (IC50) JAK2. On the procedure:
(§2) The compounds of the present invention as described in the previous examples were tested in a Kinobeads™ assay as described for ZAP-70 (WO-A 2007/137867). Briefly, test compounds (at various concentrations) and the affinity matrix with the immobilized aminopyrido-pyrimidine ligand 24 were added to cell lysate aliquots and allowed to bind to the proteins in the lysate sample. After the incubation time the beads with captured proteins were separated from the lysate. Bound proteins were then eluted and the presence of JAK1, JAK2, JAK3 and TYK2 was detected and quantified using specific antibodies in a dot blot procedure and the Odyssey infrared detection system. Dose response curves for individual kinases were generated and IC50 values calculated. Kinobeads™ assays for ZAP-70 (WO-A 2007/137867) and for kinase selectivity profiling (WO-A 2006/134056) have been previously described.
(§3) The affinity matrix was washed two times with 15 mL of lx DP buffer containing 0.2% NP40 (IGEPAL® CA-630, Sigma, #13021) and then resuspended in 1×DP buffer containing 0.2% NP40 (3% beads slurry).
as §1
(§4) Stock solutions of test compounds were prepared in DMSO. In a 96 well plate […] solution of diluted test compounds at 5 mM in DMSO were prepared. Starting with this solution a 1:3 dilution series (9 steps) was prepared. For control experiments (no test compound) a buffer containing 2% DMSO was used.
(§5) Molt4 cells (ATCC catalogue number CRL-1582) and Ramos cells (ATCC catalogue number CRL-1596) were grown in 1 L Spinner flasks (Integra Biosciences, #182101) in suspension in RPMI 1640 medium (Invitrogen, #21875-034) supplemented with 10% Fetal Bovine Serum (Invitrogen) at a density between 0.15×10^6 and 1.2×10^6 cells/mL. Cells were harvested by centrifugation, washed once with 1×PBS buffer (Invitrogen, #14190-094) and cell pellets were frozen in liquid nitrogen and subsequently stored at −80° C. Cells were homogenized in a Potter S homogenizer in lysis buffer: 50 mM Tris-HCl, 0.8% NP40, 5% glycerol, 150 mM NaCl, 1.5 mM MgCl2, 25 mM NaF, 1 mM sodium vanadate, 1 mM DTT, pH 7.5. One complete EDTA-free tablet (protease inhibitor cocktail, Roche Diagnostics, 1873580) per 25 mL buffer was added. The material was dounced 10 times using a mechanized POTTER S, transferred to 50 mL falcon tubes, incubated for 30 minutes on ice and spun down for 10 minutes at 20,000 g at 4° C. (10,000 rpm in Sorvall SLA600, precooled). The supernatant was transferred to an ultracentrifuge (UZ)-polycarbonate tube (Beckmann, 355654) and spun for 1 hour at 100.000 g at 4° C. (33.500 rpm in Ti50.2, precooled). The supernatant was transferred again to a fresh 50 mL falcon tube, the protein concentration was determined by a Bradford assay (BioRad) and samples containing 50 mg of protein per aliquot were prepared. The samples were immediately used for experiments or frozen in liquid nitrogen and stored frozen at −80° C.
(§6) Cell lysate (approximately 50 mg protein per plate) was thawed in a water bath at room temperature and then stored on ice. To the thawed cell lysate 1×DP 0.8% NP40 buffer containing protease inhibitors (1 tablet for 25 mL buffer; EDTA-free protease inhibitor cocktail; Roche Diagnostics 1873580) was added in order to reach a final protein concentration of 10 mg/mL total protein. The diluted cell lysate was stored on ice. Mixed Molt4/Ramos lysate was prepared by combining one volume of Molt4 lysate and two volumes of Ramos lysate (ratio 1:2).
(§7) To a 96 well filter plate (Multiscreen HTS, BV Filter Plates, Millipore #MSBVN1250) were added per well: 100 μL affinity matrix (3% beads slurry), […], of compound solution, and 50 μL of diluted lysate. […]

Experiment [3] concerns the target T3, TYK2 (Homo sapiens, UniProt P29597).
T3 construct: endogenous in cells; host or cells: Molt4 (ATCC CRL-1582) and Ramos (ATCC CRL-1596), mixed lysate 1:2
In words: Kinobeads assay, TYK2. Conditions: mixed Molt4/Ramos lysate, read-out: Inhibition values (IC50) TYK2. On the procedure: as §2, §3, §1, §4, §5, §6, §7

The IC50 is the point on the concentration scale where inhibition reaches its midpoint.

Some results are limits rather than exact numbers.

T3 sequence (P29597 whole entry): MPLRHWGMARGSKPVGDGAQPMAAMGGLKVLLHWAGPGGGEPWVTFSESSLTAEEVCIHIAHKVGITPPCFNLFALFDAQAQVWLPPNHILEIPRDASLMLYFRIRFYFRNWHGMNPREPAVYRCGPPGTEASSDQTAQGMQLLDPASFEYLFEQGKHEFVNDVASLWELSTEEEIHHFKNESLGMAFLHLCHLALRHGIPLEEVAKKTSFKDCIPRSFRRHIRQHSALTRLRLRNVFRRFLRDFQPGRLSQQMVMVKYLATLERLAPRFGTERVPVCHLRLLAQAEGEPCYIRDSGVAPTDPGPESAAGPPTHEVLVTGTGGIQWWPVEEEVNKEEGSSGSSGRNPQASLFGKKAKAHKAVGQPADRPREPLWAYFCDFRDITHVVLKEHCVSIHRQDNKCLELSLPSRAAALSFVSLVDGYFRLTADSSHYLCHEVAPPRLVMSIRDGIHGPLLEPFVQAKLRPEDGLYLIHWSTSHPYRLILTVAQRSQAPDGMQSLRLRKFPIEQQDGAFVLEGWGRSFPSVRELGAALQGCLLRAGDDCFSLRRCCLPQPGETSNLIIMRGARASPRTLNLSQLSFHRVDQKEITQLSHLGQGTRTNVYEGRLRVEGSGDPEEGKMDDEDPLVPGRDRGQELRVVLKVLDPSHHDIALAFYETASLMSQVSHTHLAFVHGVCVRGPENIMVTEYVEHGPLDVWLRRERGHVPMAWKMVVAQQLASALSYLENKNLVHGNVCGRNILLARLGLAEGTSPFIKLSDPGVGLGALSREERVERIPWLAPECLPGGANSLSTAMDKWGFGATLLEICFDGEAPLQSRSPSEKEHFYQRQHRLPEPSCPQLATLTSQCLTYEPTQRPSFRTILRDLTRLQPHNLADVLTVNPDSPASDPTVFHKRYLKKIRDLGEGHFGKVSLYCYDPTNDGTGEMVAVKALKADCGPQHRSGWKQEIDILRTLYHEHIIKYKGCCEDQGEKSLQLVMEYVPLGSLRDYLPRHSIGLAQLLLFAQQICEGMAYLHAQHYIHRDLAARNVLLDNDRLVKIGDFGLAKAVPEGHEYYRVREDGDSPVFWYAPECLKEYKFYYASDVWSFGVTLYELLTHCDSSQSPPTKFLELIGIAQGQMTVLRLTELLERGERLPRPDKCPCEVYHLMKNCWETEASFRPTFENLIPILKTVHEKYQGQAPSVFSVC
T1 sequence (P23458 whole entry): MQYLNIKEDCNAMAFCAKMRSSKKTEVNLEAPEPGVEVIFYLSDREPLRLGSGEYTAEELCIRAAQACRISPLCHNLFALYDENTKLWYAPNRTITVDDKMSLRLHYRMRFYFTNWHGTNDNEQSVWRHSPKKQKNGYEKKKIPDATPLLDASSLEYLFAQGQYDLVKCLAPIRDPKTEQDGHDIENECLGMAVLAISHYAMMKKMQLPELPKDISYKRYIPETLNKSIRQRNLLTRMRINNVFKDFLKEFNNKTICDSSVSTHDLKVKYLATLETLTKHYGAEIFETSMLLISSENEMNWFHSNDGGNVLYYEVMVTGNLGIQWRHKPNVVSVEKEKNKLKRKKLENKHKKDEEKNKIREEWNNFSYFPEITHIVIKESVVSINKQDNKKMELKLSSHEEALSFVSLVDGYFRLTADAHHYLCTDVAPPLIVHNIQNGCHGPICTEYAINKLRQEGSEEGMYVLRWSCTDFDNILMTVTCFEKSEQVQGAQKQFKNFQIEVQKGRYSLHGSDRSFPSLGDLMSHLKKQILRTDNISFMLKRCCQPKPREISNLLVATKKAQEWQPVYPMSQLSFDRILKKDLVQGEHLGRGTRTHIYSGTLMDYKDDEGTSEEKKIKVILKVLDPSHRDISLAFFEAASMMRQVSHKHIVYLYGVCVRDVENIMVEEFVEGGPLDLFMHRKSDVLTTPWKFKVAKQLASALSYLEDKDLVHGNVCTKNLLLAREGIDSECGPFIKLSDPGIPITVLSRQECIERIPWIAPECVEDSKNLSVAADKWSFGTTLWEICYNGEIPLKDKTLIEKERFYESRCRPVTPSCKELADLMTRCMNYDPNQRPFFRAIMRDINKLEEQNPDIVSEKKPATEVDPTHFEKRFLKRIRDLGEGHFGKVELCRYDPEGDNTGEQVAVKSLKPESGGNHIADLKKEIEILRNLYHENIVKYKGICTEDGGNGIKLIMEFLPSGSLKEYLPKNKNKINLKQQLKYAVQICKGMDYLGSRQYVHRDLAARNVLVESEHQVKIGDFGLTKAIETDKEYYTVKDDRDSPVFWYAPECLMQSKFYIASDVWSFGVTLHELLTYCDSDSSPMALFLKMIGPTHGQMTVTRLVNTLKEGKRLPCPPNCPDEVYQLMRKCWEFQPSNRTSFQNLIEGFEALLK

Consider `Cn1cc(Nc2ncc(Cl)c(N[C@H](CO)c3ccccc3)n2)cn1` [Compound 4], for which the IC50 in experiment [1], in experiment [2] and in experiment [3] was 1 to 10 µM throughout.
`CC[C@@H](Nc1nc(Nc2cnn(C)c2)ncc1Cl)c1ccccc1` [Compound 5]: the IC50 in experiment [1] is 1 to 10 µM; in experiment [2], 1 to 10 µM; in experiment [3], at least 10 µM.
In the case of `Cn1cc(Nc2ncc(C(F)(F)F)c(N[C@H](CO)c3ccccc3)n2)cn1` [Compound 6], the figures for the IC50 in experiment [1], in experiment [2] and in experiment [3] were over 10 µM, at least 10 µM and at least 10 µM, respectively.
With `Cn1cc(Nc2ncc(Cl)c(NC(C)(CO)c3ccccc3)n2)cn1` (stereo not drawn) [Compound 7], the IC50 in experiment [1] was 1 to 10 µM; in experiment [2], at least 10 µM; in experiment [3] it was 1 to 10 µM.
For `Cn1cc(Nc2ncc(C(F)(F)F)c(NC(C)(CO)c3ccccc3)n2)cn1` (stereo not drawn) [Compound 8], the IC50 in experiment [1] is over 10 µM; in experiment [2] it was at least 10 µM; in experiment [3], at least 10 µM.
Turning to `OCCn1cc(Nc2ncc(Cl)c(N[C@H](CO)c3ccccc3)n2)cn1` [Compound 9], the IC50 fell in the range of 0.1 to 1 µM in experiment [1], 1 to 10 µM in experiment [2] and 1 to 10 µM in experiment [3].
Take `OCCn1cc(Nc2ncc(F)c(N[C@H](CO)c3ccccc3)n2)cn1` [Compound 10]: the IC50 in experiment [1] is 1 to 10 µM; in experiment [2], at least 10 µM; in experiment [3], 1 to 10 µM.
With `Cn1cc(-c2cccc(C(CO)Nc3nc(Nc4cnn(CCO)c4)ncc3Cl)c2)cn1` (stereo not drawn) [Compound 94], the IC50 in experiment [1] is 1 to 10 µM; in experiment [2] it was at least 10 µM; in experiment [3], at least 10 µM.
For the compound `CCn1cc(Nc2ncc(Cl)c(N[C@H](CO)c3ccccc3OC)n2)cn1` [Compound 95], the IC50 is 0.1 to 1 µM in experiment [1], 0.1 to 1 µM in experiment [2] and 1 to 10 µM in experiment [3].
In the case of `CCn1cc(Nc2ncc(Cl)c(N[C@H](CO)c3cccc(OC)c3)n2)cn1` [Compound 96], the values for the IC50 in experiment [1], in experiment [2] and in experiment [3] were 1 to 10 µM, at least 10 µM and 1 to 10 µM, respectively.
For `CCn1cc(Nc2ncc(Cl)c(N[C@H](CO)c3cccnc3)n2)cn1` [Compound 97], the IC50 in experiment [1], in experiment [2] and in experiment [3] was 1 to 10 µM in each case.
In the case of `CNC(=O)Cn1cc(Nc2ncc(Cl)c(N[C@H](CO)c3ccccc3OC)n2)cn1` [Compound 98], the IC50 in experiment [1] is 0.1 to 1 µM; in experiment [2], 1 to 10 µM; in experiment [3], 0.1 to 1 µM.
`CNC(=O)Cn1cc(Nc2ncc(Cl)c(N[C@H](CO)c3cccc(OC)c3)n2)cn1` [Compound 99]: the IC50 is 1 to 10 µM in experiment [1], at least 10 µM in experiment [2] and 1 to 10 µM in experiment [3].
Take `CNC(=O)Cn1cc(Nc2ncc(Cl)c(N[C@H](CO)c3ccccc3F)n2)cn1` [Compound 100]: the IC50 in experiment [1] was in the range of 0.1 to 1 µM; in experiment [2], 1 to 10 µM; in experiment [3], 1 to 10 µM.
For `COc1ccccc1[C@@H](CO)Nc1nc(Nc2cnn(CC(=O)N3CCOCC3)c2)ncc1Cl` [Compound 101], the values for the IC50 in experiment [1], in experiment [2] and in experiment [3] were 0.1 to 1 µM, 1 to 10 µM and under 0.1 µM, respectively.
For `COc1cccc([C@@H](CO)Nc2nc(Nc3cnn(CC(=O)N4CCOCC4)c3)ncc2Cl)c1` [Compound 102], in that order: 0.1 to 1 µM, at least 10 µM and 0.1 to 1 µM.
For `O=C(Cn1cc(Nc2ncc(Cl)c(N[C@H](CO)c3ccccc3F)n2)cn1)N1CCOCC1` [Compound 103], in that order: 0.1 to 1 µM, 1 to 10 µM and 0.1 to 1 µM.
For `O=C(Cn1cc(Nc2ncc(Cl)c(N[C@H](CO)c3cccnc3)n2)cn1)N1CCOCC1` [Compound 104], in that order: 0.1 to 1 µM, 1 to 10 µM and 0.1 to 1 µM.
Consider `COc1ccccc1[C@@H](CO)Nc1nc(Nc2cnn(C(C)C)c2)ncc1Cl` [Compound 105], for which the values for the IC50 in experiment [1], in experiment [2] and in experiment [3] were 1 to 10 µM, 0.1 to 1 µM and 1 to 10 µM, respectively.
